Here are results for three compounds from US20240254144A1, “SALT FORM OF PYRROLOTRIAZINE COMPOUND, CRYSTAL FORM THEREOF, AND PREPARATION METHOD THEREFOR” (JUMBO DRUG BANK CO., LTD., priority 2021, published 2024).

One series concerns the target T1, MNK2 (h) protein kinase (Homo sapiens, UniProt Q9HBH9).
T1 construct: purchased Eurofins Pharma Discovery Services UK Limited (KinaseProfiler service)
Nature of the series: Inhibitory activity against MNK2 protein kinase (KinaseProfiler, 33P-ATP filter-binding). In kind it is biochemical. Conditions: myelin basic protein substrate, 40 min at room temperature. Here is the method:
Purpose of experiment: to test the inhibitory activity of the compound against MNK2 protein kinase Experimental materials: assay buffer: 8 mM 3-(N-morpholino)propanesulfonic acid, 0.2 mM disodium ethylenediaminetetraacetate, 0.01% polyoxyethylene lauryl ether, 5% glycerol, 0.1% β-mercaptoethanol and 1 mg of bovine serum albumin
Experimental operation: Mnk2 protein kinase inhibitory activity assays were performed using the KinaseProfiler™ service from Eurofins Pharma Discovery Services UK Limited. Serially diluted DMSO solutions containing the compound to be tested (3-fold serial dilution, starting from 10 μM), MNK2 (h) protein kinase and 0.33 mg/mL myelin basic protein were added to a freshly prepared buffer (pH=7.0), and then stirred homogeneously. The reaction was initiated by adding a mixture of ^33P-ATP (intensity of radioactivity: 10 μCi/μL) and 10 mM magnesium acetate. After the resulting mixture was reacted at room temperature for 40 min, the reaction was terminated by adding phosphoric acid to dilute to a concentration of 0.5%. […] After drying, the intensity of radioactivity was determined using the Filter-Binding method.
The protein kinase inhibitory activity of the compound was expressed as a percentage of the residual protein kinase activity relative to the blank substrate (DMSO alone). […]

Series [1] is described as follows: Hygroscopicity by dynamic vapor sorption (DVS). In kind it is physicochemical. The text has this:
SMS DVS intrinsic dynamic vapor sorption instrument

Series [2] can be described thus: Solid stability test (long-term and accelerated lofting). The series is classed as physicochemical. The text has this:
Each sample was separately put into a double-layer LDPE bag with each layer of LDPE bag sealed by a binding buckle. The bag was then put into an aluminum foil bag for heat sealing, and then put into a stability box under corresponding conditions for observation.

Series [3] can be described thus: Crystal form screening / stability in different solvents. In kind it is physicochemical. The note with it: stirred at 50° C. for 3 h, XRPD. How it is done: About 50 mg of the compound of formula (II) was weighed out separately and dissolved in different solvents, the mixtures were stirred at 50° C. for 3 h. The reaction liquids were cooled to room temperature, filtered for collection, and dried in vacuum, and the obtained solids were tested by XRPD.

SMILES strings stand for the structures.

A word on the IC50: it is the concentration that inhibits the measured activity by half. Read a high IC50 as a need for much substance.

T1 sequence (Q9HBH9 whole entry): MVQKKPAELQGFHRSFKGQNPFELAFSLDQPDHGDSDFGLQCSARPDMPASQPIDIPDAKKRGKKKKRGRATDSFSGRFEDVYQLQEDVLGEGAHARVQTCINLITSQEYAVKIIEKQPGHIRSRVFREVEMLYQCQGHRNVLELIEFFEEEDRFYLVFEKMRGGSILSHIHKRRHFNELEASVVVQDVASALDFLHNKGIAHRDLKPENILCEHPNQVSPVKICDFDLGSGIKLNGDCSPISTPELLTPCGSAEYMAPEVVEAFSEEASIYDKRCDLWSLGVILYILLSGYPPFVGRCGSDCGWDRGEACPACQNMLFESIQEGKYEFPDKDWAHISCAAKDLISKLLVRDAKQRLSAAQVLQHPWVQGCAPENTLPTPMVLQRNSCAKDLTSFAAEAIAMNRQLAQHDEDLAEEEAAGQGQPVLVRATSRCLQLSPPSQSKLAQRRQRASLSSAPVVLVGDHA

Take `Cc1cc(Nc2ncnn3cc(OCCN4CCC(F)(F)C4)c(C)c23)c(=O)n2c1C(=O)NC21CCCC1` [Compound of formula (I)]: the IC50 on MNK2 (h) protein kinase was found to be 17 nM.
As to `Cc1cc(Nc2ncnn3cc(OCCN4CCC(F)(F)C4)c(C)c23)c(=O)n2c1C(=O)NC21CCCC1`, the “hygroscopic weight gain ΔW” value in series [1] (25° C. and 80% RH, DVS) is reported as 1.179%. For the same compound, the “hygroscopicity (in words)” value in series [1] (25° C. and 80% RH, DVS) is given as “relatively weak hygroscopicity”. The “crystal form before and after the hygroscopic test” value in series [1] (DVS 0%~95%~0% RH, 25° C.) is listed as “not changed”. In addition, the Crystal form entry in series [2] (25° C./60% RH, 12 months) is on record as “Crystal form A”; in series [2] (25° C./60% RH, Day 0), “Crystal form A”; in series [2] (40° C./75% RH, 6 months) it was “Crystal form A”; in series [2] (40° C./75% RH, Day 0), “Crystal form A”.
As for `Cc1cc(Nc2ncnn3cc(OCCN4CCC(F)(F)C4)c(C)c23)c(=O)n2c1C(=O)NC21CCCC1` [compound of formula (II)], the Crystal form entry in series [3] (Acetonitrile) is “Crystal form A”; in series [3] (Ethanol), “Crystal form B”; in series [3] (Methanol), “Crystal form A”; in series [3] (n-Heptane) it was “Crystal form B”; in series [3] (tert-Butyl methyl ether) it was “Crystal form A”.
